Assay type in all cases: biochemical
Assay [1] addresses T1, JAK3 (Homo sapiens, UniProt P52333).
T1 construct: purchased Reaction Biology Europe GmbH
T1 sequence (P52333 1-1124): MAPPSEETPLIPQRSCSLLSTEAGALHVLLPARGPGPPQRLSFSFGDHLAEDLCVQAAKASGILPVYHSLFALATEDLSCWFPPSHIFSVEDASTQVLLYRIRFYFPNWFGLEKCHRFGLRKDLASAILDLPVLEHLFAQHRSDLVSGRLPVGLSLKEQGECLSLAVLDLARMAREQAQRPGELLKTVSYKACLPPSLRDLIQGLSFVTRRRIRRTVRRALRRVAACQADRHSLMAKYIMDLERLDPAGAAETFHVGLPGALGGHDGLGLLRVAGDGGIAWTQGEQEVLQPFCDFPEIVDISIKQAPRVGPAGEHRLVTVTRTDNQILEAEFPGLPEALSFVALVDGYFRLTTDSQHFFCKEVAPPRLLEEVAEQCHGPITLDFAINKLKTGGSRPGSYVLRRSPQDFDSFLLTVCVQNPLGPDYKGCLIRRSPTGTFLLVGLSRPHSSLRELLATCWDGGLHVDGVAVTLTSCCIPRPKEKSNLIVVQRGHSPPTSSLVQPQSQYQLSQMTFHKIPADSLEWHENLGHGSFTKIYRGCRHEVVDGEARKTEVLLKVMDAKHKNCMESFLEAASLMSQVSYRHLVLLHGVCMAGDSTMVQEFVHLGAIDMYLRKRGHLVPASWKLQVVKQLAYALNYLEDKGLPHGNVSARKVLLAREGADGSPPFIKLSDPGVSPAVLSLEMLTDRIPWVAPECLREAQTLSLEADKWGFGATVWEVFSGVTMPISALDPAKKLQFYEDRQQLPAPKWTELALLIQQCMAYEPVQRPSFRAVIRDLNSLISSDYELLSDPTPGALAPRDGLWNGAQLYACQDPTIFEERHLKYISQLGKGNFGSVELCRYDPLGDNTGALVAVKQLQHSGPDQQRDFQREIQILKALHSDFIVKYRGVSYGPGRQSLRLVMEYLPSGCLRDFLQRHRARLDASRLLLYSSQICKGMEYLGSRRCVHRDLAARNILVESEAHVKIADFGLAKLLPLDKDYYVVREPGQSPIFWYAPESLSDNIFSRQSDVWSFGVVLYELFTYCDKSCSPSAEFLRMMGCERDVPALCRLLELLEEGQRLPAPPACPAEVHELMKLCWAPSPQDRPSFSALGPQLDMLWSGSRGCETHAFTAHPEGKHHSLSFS
The experiment in a line: PanQinase kinase panel: JAK3. Particulars: for inhibition at 1 µM: read-out: INHIBITORY EFFECT @ 1 uM: JAK3. The procedure:
(§1) Screening procedures were performed in accordance with the company's on-line protocol [accessed on-line Mar.
(§2) For each kinase, the median value of the cpm of three wells was defined as “low control” (n=3). This value reflects unspecific binding of radioactivity to the plate in the absence of a protein kinase but in the presence of the substrate. Additionally, for each kinase the median value of the cpm of three other wells was taken as the “high control,” i.e. full activity in the absence of any inhibitor (n=3). The difference between high and low control of each enzyme was taken as 100% activity.
(§3) As part of the data evaluation the low control of each kinase was subtracted from the high control value as well as from their corresponding “compound values”.

Assay [2] addresses T2, RIPK2 (Homo sapiens, UniProt O43353).
T2 construct: purchased Reaction Biology Europe GmbH
The experiment in a line: PanQinase kinase panel: RIPK2. Particulars: read-out: INHIBITORY EFFECT @ 1 uM: RIPK2. The method, then: as §1, §2
(§4) As part of the data evaluation the low control of each kinase was subtracted from the high control value as well as from their corresponding “compound values”. The residual activity (in %) for each compound well was calculated by using the following formula: Res. Activity (%)=100×[(signal of compound−low control)/(high control−low control)].

The target in assay [3] is T3, BLK (Homo sapiens, UniProt P51451).
T3 construct: purchased Reaction Biology Europe GmbH
Kind of assay: PanQinase kinase panel: BLK. Particulars: read-out: INHIBITORY EFFECT @ 1 uM: BLK. The method, then:
as §1, §2, §3

For assay [4], the target named is T4, MUSK (Homo sapiens, UniProt O15146).
T4 construct: purchased Reaction Biology Europe GmbH
T4 sequence (O15146 24-869): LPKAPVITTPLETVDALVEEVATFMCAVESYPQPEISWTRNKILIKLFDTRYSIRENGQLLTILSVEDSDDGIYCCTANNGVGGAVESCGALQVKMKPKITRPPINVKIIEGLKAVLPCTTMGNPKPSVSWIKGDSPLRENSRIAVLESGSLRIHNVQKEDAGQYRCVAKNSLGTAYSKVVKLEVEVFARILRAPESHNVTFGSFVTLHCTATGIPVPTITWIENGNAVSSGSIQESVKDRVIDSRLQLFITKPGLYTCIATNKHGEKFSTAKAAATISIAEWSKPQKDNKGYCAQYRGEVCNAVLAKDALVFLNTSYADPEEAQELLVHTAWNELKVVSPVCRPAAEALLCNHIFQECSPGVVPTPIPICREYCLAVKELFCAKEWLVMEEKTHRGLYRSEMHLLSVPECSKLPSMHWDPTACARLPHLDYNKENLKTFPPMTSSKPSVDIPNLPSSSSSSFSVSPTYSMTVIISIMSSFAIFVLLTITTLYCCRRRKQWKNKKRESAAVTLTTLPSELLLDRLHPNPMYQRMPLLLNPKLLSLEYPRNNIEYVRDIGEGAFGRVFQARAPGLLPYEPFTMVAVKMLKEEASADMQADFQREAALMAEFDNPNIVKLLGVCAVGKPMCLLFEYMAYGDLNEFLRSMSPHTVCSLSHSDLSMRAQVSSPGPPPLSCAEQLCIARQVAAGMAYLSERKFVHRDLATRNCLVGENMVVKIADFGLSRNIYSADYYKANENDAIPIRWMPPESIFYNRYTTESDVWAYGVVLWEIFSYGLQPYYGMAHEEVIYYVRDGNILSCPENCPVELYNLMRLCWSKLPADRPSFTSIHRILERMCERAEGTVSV
The experiment in a line: PanQinase kinase panel: MUSK. The method, then:
as §1, §2, §4

For assay [5], the target named is T5, LIMK1 (Homo sapiens, UniProt P53667).
T5 construct: purchased Reaction Biology Europe GmbH
Kind of assay: PanQinase kinase panel: LIMK1. The procedure:
as §1, §2, §4

The mark [6] stands for this setting: read-out: INHIBITORY EFFECT @ 1 uM: MUSK.
The mark [7] stands for this setting: read-out: INHIBITORY EFFECT @ 1 uM: LIMK1.

Where two headings read alike, the source gives them in different places.

T3 sequence (P51451 whole entry): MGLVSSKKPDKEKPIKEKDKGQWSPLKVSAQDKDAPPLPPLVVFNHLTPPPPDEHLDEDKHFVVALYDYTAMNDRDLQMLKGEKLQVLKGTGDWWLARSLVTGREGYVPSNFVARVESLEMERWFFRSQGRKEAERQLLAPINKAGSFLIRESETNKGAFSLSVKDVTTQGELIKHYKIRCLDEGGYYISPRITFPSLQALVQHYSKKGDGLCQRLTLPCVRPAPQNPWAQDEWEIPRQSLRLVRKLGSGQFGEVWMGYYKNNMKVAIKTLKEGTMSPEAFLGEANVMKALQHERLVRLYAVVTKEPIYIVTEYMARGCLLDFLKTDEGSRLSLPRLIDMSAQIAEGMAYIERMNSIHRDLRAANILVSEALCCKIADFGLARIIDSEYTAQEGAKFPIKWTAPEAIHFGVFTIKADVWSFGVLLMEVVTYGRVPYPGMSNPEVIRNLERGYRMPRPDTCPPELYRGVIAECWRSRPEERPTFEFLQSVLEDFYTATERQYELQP
T5 sequence (P53667 whole entry): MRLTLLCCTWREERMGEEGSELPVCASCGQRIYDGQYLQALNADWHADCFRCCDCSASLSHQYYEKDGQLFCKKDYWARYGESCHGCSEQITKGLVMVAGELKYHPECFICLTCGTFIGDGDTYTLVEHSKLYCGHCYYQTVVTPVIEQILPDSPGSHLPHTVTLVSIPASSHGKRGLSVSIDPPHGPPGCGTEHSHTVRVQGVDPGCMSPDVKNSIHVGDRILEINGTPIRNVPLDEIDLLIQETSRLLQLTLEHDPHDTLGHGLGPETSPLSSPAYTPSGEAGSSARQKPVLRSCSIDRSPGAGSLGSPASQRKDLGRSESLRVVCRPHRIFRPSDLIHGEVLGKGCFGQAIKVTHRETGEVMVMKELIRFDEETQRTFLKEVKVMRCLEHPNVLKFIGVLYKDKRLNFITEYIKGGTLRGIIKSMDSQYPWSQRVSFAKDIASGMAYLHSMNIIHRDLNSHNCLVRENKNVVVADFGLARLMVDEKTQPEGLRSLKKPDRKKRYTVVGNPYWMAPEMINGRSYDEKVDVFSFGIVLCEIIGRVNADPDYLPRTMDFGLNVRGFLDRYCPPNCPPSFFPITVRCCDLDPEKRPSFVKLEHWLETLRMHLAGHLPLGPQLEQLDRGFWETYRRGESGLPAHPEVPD
T2 sequence (O43353 whole entry): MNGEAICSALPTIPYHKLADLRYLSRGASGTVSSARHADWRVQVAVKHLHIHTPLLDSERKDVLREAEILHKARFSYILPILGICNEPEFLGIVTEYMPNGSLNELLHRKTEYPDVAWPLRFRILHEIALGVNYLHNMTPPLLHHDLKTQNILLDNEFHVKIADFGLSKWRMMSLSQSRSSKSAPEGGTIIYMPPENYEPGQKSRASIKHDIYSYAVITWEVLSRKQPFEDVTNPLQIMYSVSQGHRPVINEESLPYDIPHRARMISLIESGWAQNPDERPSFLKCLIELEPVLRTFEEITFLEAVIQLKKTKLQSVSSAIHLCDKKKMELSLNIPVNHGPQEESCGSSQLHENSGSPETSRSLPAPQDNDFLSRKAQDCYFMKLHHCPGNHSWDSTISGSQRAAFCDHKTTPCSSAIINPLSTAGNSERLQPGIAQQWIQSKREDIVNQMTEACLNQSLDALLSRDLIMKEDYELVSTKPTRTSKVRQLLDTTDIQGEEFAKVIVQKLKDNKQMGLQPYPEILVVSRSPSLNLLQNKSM

Turning to `O=C(c1ccc(Oc2ccccc2)cc1Cl)c1c[nH]c2ncnc(N[C@@H]3CC[C@@H](CO)OC3)c12` [ARQ-531, (2-chloro-4-phenoxyphenyl) (4-(((3R,6S)-6-(hydroxymethyl)tetrahydro-2H-pyran-3-yl)amino)-7H-pyrrolo[2,3-d]pyrimidin-5-yl) methanone], the inhibition at 1 µM in assay [1] was 50 to 69%; in assay [2], 90 to 100%; in assay [3], 90 to 100%.

Take `Cc1cccnc1[C@H]1CCC[C@@H](c2ncccc2C)N1CCN1CCN(C(=O)c2ccc(-c3cc4c(-c5cccc(NC(=O)c6ccccc6)c5C)ncnc4[nH]3)cc2)CC1` [Compound I-10, N-(3-(6-(4-(4-(2-((2R,6S)-2,6-bis(3-methylpyridin-2-yl)piperidin-1-yl)ethyl)piperazine-1-carbonyl)phenyl)-7H-pyrrolo[2,3-d]pyrimidin-4-yl)-2-methylphenyl)benzamide]: the inhibition at 1 µM was 50 to 89% in assay [4] (at 1 μM, read-out: inhibition of MUSK); 70 to 89% in assay [4] (setting [6]); less than 50% in assay [1]; 50 to 89% in assay [5] (at 1 μM, read-out: inhibition of LIMK1); 70 to 89% in assay [5] (setting [7]); less than 50% in assay [2]. Moreover, the inhibition at 1 µM in assay [3] is less than 50%.

Turning to `COc1ccc(F)cc1C(=O)NCc1ccc(-c2nn([C@@H](C)C(F)(F)F)c(N)c2C(N)=O)cc1` [LOXO-305, pirtobrutinib], the inhibition at 1 µM in assay [4] (setting [6]), in assay [1], in assay [5] (setting [7]), in assay [2] and in assay [3] was less than 50% in each case.

With `C=CC(=O)N1CCC([C@@H]2CCNc3c(C(N)=O)c(-c4ccc(Oc5ccccc5)cc4)nn32)CC1` [Zanubrutinib, (7S)-2-(4-phenoxyphenyl)-7-(1-prop-2-enoylpiperidin-4-yl)-4,5,6,7-tetrahydropyrazolo[1,5-a]pyrimidine-3-carboxamide], the inhibition at 1 µM in assay [4] (setting [6]) is less than 50%; in assay [5] (setting [7]), less than 50%; in assay [2], 50 to 69%. Also, the “INHIBITORY EFFECT @ 1 uM: JAK3” value in assay [1] (1 uM) was “+ (Below 50% Inhibition at 1 uM)”.

The values above are taken from US20250326753A1, “DUAL CXCR4-BTK INHIBITORS” (X4 Pharmaceuticals, Inc., priority 2022, published 2025).
